Measurements taken from PMC6511404 (Biochemistry, 2019).

Assays:
E. coli enolase [1] = biological target: T1, E. coli enolase (Escherichia coli, UniProt P0A6P9); test: X-ray crystal structure, […] Å; assay type: binding
Target sequence in this assay (P0A6P9 whole entry): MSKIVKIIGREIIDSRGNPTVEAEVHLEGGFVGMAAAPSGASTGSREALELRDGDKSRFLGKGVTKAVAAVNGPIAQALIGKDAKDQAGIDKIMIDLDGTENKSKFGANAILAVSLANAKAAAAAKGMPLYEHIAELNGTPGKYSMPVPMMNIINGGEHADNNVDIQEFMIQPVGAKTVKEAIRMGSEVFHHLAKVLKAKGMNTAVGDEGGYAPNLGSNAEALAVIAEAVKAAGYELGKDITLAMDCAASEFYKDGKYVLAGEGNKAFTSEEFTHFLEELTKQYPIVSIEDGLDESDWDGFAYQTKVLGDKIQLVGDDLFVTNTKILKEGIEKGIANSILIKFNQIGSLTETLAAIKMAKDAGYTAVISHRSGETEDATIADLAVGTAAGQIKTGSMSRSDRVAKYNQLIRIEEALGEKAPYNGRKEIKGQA

E. coli enolase [2] = biological target: T1, E. coli enolase; test: enolase assay, % inhibition at […]; assay type: biochemical; details: read-out: % inhibition at 20 μM
Target sequence in this assay (P0A6P9 2-432): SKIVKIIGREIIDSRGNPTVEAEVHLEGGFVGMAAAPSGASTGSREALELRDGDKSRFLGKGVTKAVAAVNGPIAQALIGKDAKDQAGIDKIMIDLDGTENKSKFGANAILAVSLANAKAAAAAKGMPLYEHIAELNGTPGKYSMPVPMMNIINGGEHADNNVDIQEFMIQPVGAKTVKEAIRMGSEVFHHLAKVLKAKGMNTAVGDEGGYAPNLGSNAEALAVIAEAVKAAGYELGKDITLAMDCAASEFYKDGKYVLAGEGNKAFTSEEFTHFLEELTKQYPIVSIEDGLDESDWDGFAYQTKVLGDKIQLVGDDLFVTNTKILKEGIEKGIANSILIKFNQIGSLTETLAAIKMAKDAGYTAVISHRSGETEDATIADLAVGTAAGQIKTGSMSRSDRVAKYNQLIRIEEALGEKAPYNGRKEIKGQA

SMILES | X-ray crystal structure, 1.8 Å (E. coli enolase [1]) | inhibition at 20 µM (E. coli enolase [2]) [%]
O=C(O)C(CO)OP(=O)(O)O (centres unmarked) [2-PGA] | we observe a fully occupied active site with 2-PGA and two Mg-ions bound (PDB 6BFy) | –
NCCOCCOCCNC(=O)Cc1ccc(Nc2nc(NCc3ccc(F)cc3)nc(NCC3CCCCC3)n2)cc1 [compound 41, ENOblock] | – | 41
